{"source": "patent US20250115669A1", "about": "“FGFR1/KLB Targeting Agonistic Antigen-Binding Proteins and Conjugates Thereof with GLP-1R Agonistic Peptides” (SANOFI, priority 2020, published 2025)", "key": {"[1]": {"target": "T1, human glucagon (GCG) receptor (Homo sapiens, UniProt P47871)", "T1 construct": "expressed in transfected cells; host or cells: PSC-HEK-293", "T1 sequence (P47871 26-477)": "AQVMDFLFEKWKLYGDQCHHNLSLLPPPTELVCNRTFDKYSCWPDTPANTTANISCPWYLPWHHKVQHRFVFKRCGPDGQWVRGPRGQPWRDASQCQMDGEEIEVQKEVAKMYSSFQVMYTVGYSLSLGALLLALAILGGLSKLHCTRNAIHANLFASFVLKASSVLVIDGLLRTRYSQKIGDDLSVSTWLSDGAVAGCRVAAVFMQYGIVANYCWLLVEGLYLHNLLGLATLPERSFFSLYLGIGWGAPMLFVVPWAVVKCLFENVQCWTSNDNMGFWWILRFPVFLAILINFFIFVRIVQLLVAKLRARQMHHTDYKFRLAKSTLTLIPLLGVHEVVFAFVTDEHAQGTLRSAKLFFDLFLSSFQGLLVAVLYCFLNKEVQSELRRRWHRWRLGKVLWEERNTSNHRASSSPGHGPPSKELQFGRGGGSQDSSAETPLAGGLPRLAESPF", "experiment": "HTRF cAMP assay in HEK-293 cells expressing human glucagon receptor", "type": "cell-based", "details": "HEK-293 cells; read-out: HTRF cAMP EC50 Human GCGR", "procedure": "(§1) Each vial contained 1.8 ml cells. The vials were slowly frozen to −80° C. in isopropanol, and then transferred in liquid nitrogen for storage.\n(§2) Cells were resuspended in assay buffer (cell buffer plus 2 mM IBMX) and adjusted to a cell density of 1 million cells/ml.\n(§3) For measurement of cAMP generation, 5 μl cells (final 5000 cells/well) and 5 μl of test compound were added to a 384-well plate, followed by incubation for 30 min at room temperature.\n(§4) The cAMP generated was determined using a kit from Cisbio Corp. based on HTRF (Homogenous Time Resolved Fluorescence). The cAMP assay was performed according to manufacturer's instructions (Cisbio)."}, "[2]": {"target": "T2, human GIP receptor (Homo sapiens, UniProt P48546)", "T2 construct": "expressed in transfected cells; host or cells: PSC-HEK-293", "T2 sequence (P48546 22-466)": "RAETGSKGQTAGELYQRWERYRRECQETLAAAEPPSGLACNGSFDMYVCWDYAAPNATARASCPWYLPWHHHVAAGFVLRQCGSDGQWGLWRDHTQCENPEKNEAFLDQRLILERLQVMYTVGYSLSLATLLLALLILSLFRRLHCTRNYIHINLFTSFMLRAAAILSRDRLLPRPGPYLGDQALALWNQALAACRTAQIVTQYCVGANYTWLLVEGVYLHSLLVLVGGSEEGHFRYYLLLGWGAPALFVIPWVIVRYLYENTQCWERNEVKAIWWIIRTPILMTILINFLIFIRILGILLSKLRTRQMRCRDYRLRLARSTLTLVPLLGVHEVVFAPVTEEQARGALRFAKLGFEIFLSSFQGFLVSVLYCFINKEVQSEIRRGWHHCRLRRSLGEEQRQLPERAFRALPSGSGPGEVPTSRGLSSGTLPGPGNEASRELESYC", "experiment": "HTRF cAMP assay in HEK-293 cells expressing human GIP receptor", "type": "cell-based", "details": "HEK-293 cells; read-out: HTRF cAMP EC50 Human GIPR", "procedure": "as §1, §2, §3, §4"}, "[3]": {"experiment": "SAR16 (16H7) standalone and in combination with dulaglutide in DIO NASH cynomolgus monkeys", "type": "in vivo, Cynomolgus monkey (Macaca fascicularis)", "procedure": "Both were tested as single administration and in combination of both in the most relevant animal model that reflects the intended human population. Thus, the pharmacokinetic and pharmacodynamics of varying doses of the compounds were explored in the high-fat diet-induced obese and insulin resistance cynomolgus monkey model with diagnosed non-alcoholic steatohepatitis (NASH), mimicking the adult human NASH insulin resistance phenotype.\nCynomolgus monkey (Macaca fascicularis) was selected as the test species of choice for more meaningful results that were translatable to humans. More than 50 male monkeys were trained to identify 40 HFD induced obese NASH monkeys for the study.\nThere was a run-in period during which monkeys were injected subcutaneously with vehicle every third day. Food intake (calculated as TEI) and water intake were measured daily along with twice-weekly body weight evaluation and baseline value determination for metabolic biomarkers, safety biomarkers, IV glucose tolerance test (IVGTT), liver biopsy for gene expression analysis, and profile for glucose, insulin, and plasma lipids.\nFor the dosing period 40 trained monkeys (n=10 per group) were selected and stratified for body weight, fasting plasma glucose (FPG), and fasting plasma insulin (FPI) and insulin response from baseline during the IVGTT. All treatments were administered subcutaneously for […]. The dosing period was designed as a four-arm, dose-ramping study, and monkeys were treated with either vehicle, SAR10, SAR16, or a combination of both SAR10 and SAR16.\nThe SAR10-treated monkeys were dosed every 3rd day at 60 μg/kg initiated by dose ramping (3 dose steps, week 1: 20 μg/kg, week 2: 40 μg/kg, week 3 to runout: 60 μg/kg). The SAR16-treated monkeys were dosed at 1 mg/kg on day +1, 3 mg/kg on day +16, and then repeat maintenance dose of 3 mg/kg on day +46. The Combo-treated monkey were dosed with both SAR10 and SAR16 as the same pattern of the SAR10 and SAR16 treated monkeys.\nOther parameters were also measured during the study, including food intake, body fat, plasma ketone bodies, as well as blood glucose control (glucose profile, fed, fasting plasma glucose and during ivGTT). One group received the vehicle. The compounds were administered subcutaneously (SC) (12 weeks “evaluation phase” plus run-out) to obese and NASH male cynomolgus macaques (Macaca fascicularis).\nThe SAR10-treated monkeys were dosed every 3rd day at 60 μg/kg initiated by dose ramping (3 dose steps, week 1: 20 μg/kg, week 2: 40 μg/kg, week 3 to runout: 60 μg/kg). The SAR16-treated monkeys were dosed at 1 mg/kg on day +1, 3 mg/kg on day +16, and then repeat maintenance dose of 3 mg/kg on day +46. The Combo-treated monkey were dosed with both SAR10 and SAR16 at the same pattern of the SAR10 and SAR16 treated monkeys."}, "[4]": {"details": "compared to the vehicle treated group"}, "[5]": {"details": "day +76 compared to baseline (day −27)"}}, "note": "Bridge positions count the residues as written; N and C are the ends. Ends that are not written are not given here. Peptide text beside a SMILES is read from it.", "data": [{"compound": "CC[C@H](C)[C@H](NC(=O)[C@H](CC(C)C)NC(=O)[C@H](Cc1c[nH]c2ccccc12)NC(=O)[C@H](CCC(=O)O)NC(=O)[C@@H](NC(=O)[C@H](Cc1ccccc1)NC(=O)[C@H](CCC(=O)O)NC(=O)[C@H](Cc1c[nH]cn1)NC(=O)[C@H](CCC(N)=O)NC(=O)[C@H](C)NC(=O)[C@H](CCCNC(=N)N)NC(=O)[C@H](CCCCN)NC(=O)[C@H](CCC(=O)O)NC(=O)[C@H](CC(C)C)NC(=O)[C@H](CC(C)C)NC(=O)[C@H](CCCCN)NC(=O)[C@H](CO)NC(=O)[C@H](CC(C)C)NC(=O)[C@H](CC(=O)O)NC(=O)[C@H](CO)NC(=O)[C@@H](NC(=O)[C@H](Cc1ccccc1)NC(=O)[C@@H](NC(=O)CNC(=O)[C@H](CCC(=O)O)NC(=O)CNC(=O)[C@@H](N)Cc1c[nH]cn1)[C@@H](C)O)[C@@H](C)O)[C@@H](C)CC)C(=O)N[C@@H](C)C(=O)NCC(=O)NCC(=O)N1CCC[C@H]1C(=O)N[C@@H](CO)C(=O)N[C@@H](CO)C(=O)NCC(=O)N[C@@H](CCCCN)C(=O)N1CCC[C@H]1C(=O)N1CCC[C@H]1C(=O)N1CCC[C@H]1C(=O)N[C@@H](CCCCN)C(N)=O", "note": "[Ab P028] (H-HGEGTFTSDLSKLLEKRAQHEFIEWLIAGGPSSGKPPPK-NH2; N-terminus assumed)", "values": [{"measurement": "EC50", "setting": "[1]", "value": "> 10", "unit": "nM"}, {"measurement": "EC50", "setting": "[2]", "value": 0.39, "unit": "nM"}]}, {"compound": "CC[C@H](C)[C@H](NC(=O)[C@H](Cc1ccccc1)NC(=O)[C@H](CCC(=O)O)NC(=O)[C@H](Cc1c[nH]cn1)NC(=O)[C@H](CCC(N)=O)NC(=O)[C@H](C)NC(=O)[C@H](CCCNC(=N)N)NC(=O)[C@H](CCCCN)NC(=O)[C@H](CCC(=O)O)NC(=O)[C@H](CC(C)C)NC(=O)[C@H](CC(C)C)NC(=O)[C@H](CCCCN)NC(=O)[C@H](CO)NC(=O)[C@H](CC(C)C)NC(=O)[C@H](CC(=O)O)NC(=O)[C@H](CO)NC(=O)[C@@H](NC(=O)[C@H](Cc1ccccc1)NC(=O)[C@@H](NC(=O)CNC(=O)[C@H](CCC(=O)O)NC(=O)CNC(=O)[C@@H](N)Cc1c[nH]cn1)[C@@H](C)O)[C@@H](C)O)C(=O)N[C@@H](CCC(=O)O)C(=O)N[C@@H](Cc1c[nH]c2ccccc12)C(=O)N[C@@H](CC(C)C)C(=O)N[C@@H](CCCCN)C(=O)N[C@@H](C)C(=O)NCC(=O)NCC(=O)N1CCC[C@H]1C(=O)N[C@@H](CO)C(=O)N[C@@H](CO)C(=O)NCC(=O)N[C@@H](CCCCN)C(=O)N1CCC[C@H]1C(=O)N1CCC[C@H]1C(=O)N1CCC[C@H]1C(=O)N[C@@H](CCCCN)C(N)=O", "note": "[Ab P030] (H-HGEGTFTSDLSKLLEKRAQHEFIEWLKAGGPSSGKPPPK-NH2; N-terminus assumed)", "values": [{"measurement": "EC50", "setting": "[1]", "value": "> 10", "unit": "nM"}, {"measurement": "EC50", "setting": "[2]", "value": 2.76, "unit": "nM"}]}, {"compound": "HGEGTFTSDLSILCEKRAVHEFIEWLKAGGPSSGKPPPKPGC-NH2 (disulfide 14-42) [Ab P034]", "values": [{"measurement": "EC50", "setting": "[1]", "value": "> 10", "unit": "nM"}, {"measurement": "EC50", "setting": "[2]", "value": 0.257, "unit": "nM"}]}, {"compound": "dulaglutide [SAR10]", "values": [{"measurement": "body weight (in words)", "setting": "[3]; DIO NASH cynomolgus monkeys", "value": "Significant reductions in body weight"}, {"measurement": "food intake", "setting": "[3]; DIO NASH cynomolgus monkeys", "value": "Reduction of food intake"}, {"measurement": "fasting glucose and fed glucose levels (12:30 and 18:30)", "setting": "[3]; [4]", "value": "No significant change"}, {"measurement": "ivGTT glucose AUC", "setting": "[3]; [4]", "value": "significantly decreased"}, {"measurement": "ivGTT plasma insulin AUC", "setting": "[3]; [4]", "value": "significant increase"}, {"measurement": "blood glucose levels, plasma profile", "setting": "[3]; [5]", "value": "appreciable decreases"}, {"measurement": "insulin, plasma profile", "setting": "[3]; [5]", "value": "decreased"}, {"measurement": "HDL levels, plasma profile", "setting": "[3]; day +76 versus day −27", "value": "slightly increased"}, {"measurement": "T-ketones levels, plasma profile", "setting": "[3]; day +76 versus day −27", "value": "quite stable"}, {"measurement": "TC and LDL levels, plasma profile", "setting": "[3]; day +76 versus day −27", "value": "decreased"}, {"measurement": "TG values, plasma profile", "setting": "[3]; day +76 versus day −27", "value": "quite stable"}, {"measurement": "liver fat fraction change (MRI)", "setting": "[3]; measured on days +81/+82/+83/+84, DIO NASH cynomolgus monkeys", "value": "−25.2", "unit": "%"}, {"measurement": "NASH steatosis score", "setting": "[3]; more monkeys improved compared to vehicle treated group", "value": "improved steatosis score"}]}]}
